system: S. aureus; test: Antibacterial activity: Minimum Inhibitory Concentration; type: cell-based, Staphylococcus aureus ATCC 6538; conditions: Staphylococcus aureus, Day 1, 37° C., 24 hours
Experimental: (§1) The antimicrobial activity was determined by inoculation of the test microorganism into suitable growth media containing solutions of the compounds at concentrations of 100, 50, 10, 5, 1.0, 0.5 and 0.1 μg/ml. The reference antibiotics used were Gentamicin for the antibacterial tests and Amphotericin B for the antimycotic and antifungal tests. After incubation the antimicrobial activity was recorded as the Minimal Inhibitory Concentration (M.I.C.), i.e., the lowest concentration preventing macroscopically visible growth, for each test compound against each organism.
(§2) An initial solution of each formula (I) compound to be tested in sterile distilled water was prepared at a concentration of 1000 μg/ml. With appropriate dilutions using sterile distilled water, additional solutions were prepared at concentrations of 500, 100, 50, 10, 5 and 1 μg/ml.
(§3) They were cultured and maintained on Tryptone Soy Agar (Oxoid CM 131), with the addition of 10% horse blood for the S. pyogenes.
(§4) To prepare the organisms as inocula for the test, slopes of this medium were streaked with the organisms and incubated at 37° C. for 24 hours. 4.5 Ml volumes of Brian-Heart Infusion Broth (Oxoid CM 225) were then inoculated with a platinum loop from the agar slope cultures and incubated for 24 hours at 37° C. The final inocula were then prepared by adding 0.1 ml aliquots of the Brain-Heart Infusion Broth cultures to 100 ml volumes of sterile physiological saline.
(§5) (a) For the test on each of the bacterial strains and each of the test and reference compounds, a series of 8 tubes containing 4.5 ml volumes of Brain-Heart Infusion Broth (Oxoid CM 225) were prepared. To 7 of these were added 0.5 ml volumes of the final solutions of the test compouns, giving final concentrations in the broths of 100, 50, 10, 5, 1.0, 0.5 and 0.1 μg/ml. To the eighth tube in each series was added 0.5 ml of the solvent used and diluted as for the preparation of the 1000 μg/ml solution of the compound. This tube was used as the growth control. The tubes were inoculated with 0.02 ml aliquots of the inocula prepared in accordance with "(a) Bacteria" above, and incubated at 37° C. for 24 hours. The tubes were then examined for evidence of bacterial growth as shown by turbidity of the medium and the lowest concentration of the test compound which prevented bacterial growth was recorded as the Minimal Inhibitory Concentration. This test procedure was carried out on two separate days.

Row | SMILES | MIC [µg/mL]
1 | CCCCCCCCCCCCCCn1ccc[n+]1C [Example 3-G, 2-methyl-1-tetradecyl-pyrazolium methosulfate] | 0.5
2 | CCCCCCCCCCCC[n+]1c(C)cc(C)n1Cc1ccc(Cl)cc1Cl.[Br-] [Example 6-B, 2-(2,4-dichlorobenzyl)-3,5-dimethyl-1-dodecyl-pyrazolium bromide] | 0.5
3 | CCCCCCCCCCCCCCCC[n+]1c(C)cc(C)n1C.Cc1ccc(S(=O)(=O)[O-])cc1 [Example 6-C, 1-hexadecyl-2,3,5-trimethylpyrazolium p-toluene sulfonate] | 0.5

same assay, conditions: Staphylococcus aureus, Day 2, 37° C., 24 hours

Row | SMILES | MIC [µg/mL]
4 | CCCCCCCCCCCCCCn1ccc[n+]1C [Example 3-G, 2-methyl-1-tetradecyl-pyrazolium methosulfate] | 0.5
5 | CCCCCCCCCCCC[n+]1c(C)cc(C)n1Cc1ccc(Cl)cc1Cl.[Br-] [Example 6-B, 2-(2,4-dichlorobenzyl)-3,5-dimethyl-1-dodecyl-pyrazolium bromide] | 0.5
6 | CCCCCCCCCCCCCCCC[n+]1c(C)cc(C)n1C.Cc1ccc(S(=O)(=O)[O-])cc1 [Example 6-C, 1-hexadecyl-2,3,5-trimethylpyrazolium p-toluene sulfonate] | 0.5

system: P. aeruginosa; test: as above; type: cell-based, Pseudomonas aeruginosa ATCC 9027; conditions: Pseudomonas aeruginosa, 24 h, read-out: Minimum Inhibitory Concentration
Experimental: as §1, §2, §3, §4, §5

Row | SMILES | MIC [µg/mL]
7 | CCCCCCCCCCCCCCCC[n+]1c(C)cc(C)n1C.Cc1ccc(S(=O)(=O)[O-])cc1 [Example 6-C, 1-hexadecyl-2,3,5-trimethylpyrazolium p-toluene sulfonate] | 5

same assay, conditions: Pseudomonas aeruginosa, read-out: Minimum Inhibitory Concentration

Row | SMILES | MIC [µg/mL]
8 | CCCCCCCCCCCCCCCC[n+]1c(C)cc(C)n1C.Cc1ccc(S(=O)(=O)[O-])cc1 [Example 6-C, 1-hexadecyl-2,3,5-trimethylpyrazolium p-toluene sulfonate] | 10

same assay, conditions: Pseudomonas aeruginosa; P. aeruginosa, Day 1; 37° C., 24 hours; read-out: Minimum Inhibitory Concentration

Row | SMILES | MIC [µg/mL]
9 | CCCCCCCCCCCCCCn1ccc[n+]1C [Example 3-G, 2-methyl-1-tetradecyl-pyrazolium methosulfate] | 10
10 | CCCCCCCCCCCC[n+]1c(C)cc(C)n1Cc1ccc(Cl)cc1Cl.[Br-] [Example 6-B, 2-(2,4-dichlorobenzyl)-3,5-dimethyl-1-dodecyl-pyrazolium bromide] | 10

same assay, conditions: Pseudomonas aeruginosa; P. aeruginosa, Day 2; 37° C., 24 hours; read-out: Minimum Inhibitory Concentration

Row | SMILES | MIC [µg/mL]
11 | CCCCCCCCCCCCCCn1ccc[n+]1C [Example 3-G, 2-methyl-1-tetradecyl-pyrazolium methosulfate] | 10
12 | CCCCCCCCCCCC[n+]1c(C)cc(C)n1Cc1ccc(Cl)cc1Cl.[Br-] [Example 6-B, 2-(2,4-dichlorobenzyl)-3,5-dimethyl-1-dodecyl-pyrazolium bromide] | 10

system: C. neoformans; test: Antimycotic activity: Minimum Inhibitory Concentration; type: cell-based, Cryptococcus neoformans NCPF 3184; conditions: Cryptococcus neoformans, pH 5.5, C. neoformans, Day 1; pH 5.5, 30° C., 72 hours; read-out: Minimum Inhibitory Concentrations
Experimental: as §1, §2
The C. neoformans was also maintained on Sabouraud-Dextrose Agar (Oxoid CM 41), but in this case cultures for the preparation of the inoculum were incubated on this agar at 30° C. for 48 hours. A 4.5 ml volume of citric acid-phosphate buffer pH 5.5 plus Yeast-Nitrogen Base (Difco-0392-15) was then inoculated from the agar culture and incubated at 30° C. for 48 hours. A 0.1 ml aliquot of this culture was then added to 100 ml sterile physiological saline to give the final inoculum.
(b) For the tests on each of the C. albicans, C. tropicalis and C. neoformans strains and each of the test and reference compounds, a series of 8 tubes containing 4.5 ml volumes of citric acid-phosphate buffer pH 5.5 plus Yeast-Nitrogen Base (Difco 0392-15) were prepared. To 7 of these were added 0.5 ml volumes of the final solutions of the test compounds, giving final concentrations in the broths of 100, 50, 10, 5, 1.0, 0.5 and 0.1 μg/ml. To the eighth tube in each series was added 0.5 ml of the solvent used and diluted as for the preparation of the 1000 μg/ml solution of the compound. This tube was used as the growth control. The tubes were then inoculated with 0.1 ml aliquots of the inocula prepared as in "(b) Fungi" above. The tubes inoculated with the C. albicans and C. tropicalis were inoculated at 37° C. for 72 hours and the tubes inoculated with the C. neoformans straim were incubated at 30° C. for 72 hours. […] The tubes were then examined for evidence of growth as shown by turbidity of the medium and the lowest concentration of the test compound which prevented fungal growth was recorded as the Minimal Inhibitory Concentration. This test procedure was carried out on two separate days.

Row | SMILES | MIC [µg/mL]
13 | CCCCCCCCCCCCCCn1ccc[n+]1C [Example 3-G, 2-methyl-1-tetradecyl-pyrazolium methosulfate] | 1
14 | CCCCCCCCCCCC[n+]1c(C)cc(C)n1Cc1ccc(Cl)cc1Cl.[Br-] [Example 6-B, 2-(2,4-dichlorobenzyl)-3,5-dimethyl-1-dodecyl-pyrazolium bromide] | 1

same assay, conditions: Cryptococcus neoformans, pH 5.5, C. neoformans, Day 2; pH 5.5, 30° C., 72 hours; read-out: Minimum Inhibitory Concentrations

Row | SMILES | MIC [µg/mL]
15 | CCCCCCCCCCCCCCn1ccc[n+]1C [Example 3-G, 2-methyl-1-tetradecyl-pyrazolium methosulfate] | 1
16 | CCCCCCCCCCCC[n+]1c(C)cc(C)n1Cc1ccc(Cl)cc1Cl.[Br-] [Example 6-B, 2-(2,4-dichlorobenzyl)-3,5-dimethyl-1-dodecyl-pyrazolium bromide] | 1

same assay, conditions: Cryptococcus neoformans, pH 5.5, read-out: Minimum Inhibitory Concentrations, C. neoformans, Day 1; pH 5.5, 30° C., 72 hours

Row | SMILES | MIC [µg/mL]
17 | CCCCCCCCCCCCCCCC[n+]1c(C)cc(C)n1C.Cc1ccc(S(=O)(=O)[O-])cc1 [Example 6-C, 1-hexadecyl-2,3,5-trimethylpyrazolium p-toluene sulfonate] | 1

same assay, conditions: Cryptococcus neoformans, pH 5.5, read-out: Minimum Inhibitory Concentrations, C. neoformans, Day 2; pH 5.5, 30° C., 72 hours

Row | SMILES | MIC [µg/mL]
18 | CCCCCCCCCCCCCCCC[n+]1c(C)cc(C)n1C.Cc1ccc(S(=O)(=O)[O-])cc1 [Example 6-C, 1-hexadecyl-2,3,5-trimethylpyrazolium p-toluene sulfonate] | 1

system: A. fumigatus; test: Antifungal activity: Minimum Inhibitory Concentration; type: cell-based, Aspergillus fimigatus (A. fumigatus) NCPF 2140; conditions: A. fumigatus, Day 2; 27° C., one week
Experimental: as §1, §2
(§6) The A. corymbifera, A. fumigatus, S. schenkii, T. rubrum, T. mentagrophytes, M. canis and P. verrucosa strains were all maintained on Sabouraud-Dextrose Agar (Oxoid CM 41) by incubating for 14 days at 27° C. To prepare the inocula 30 ml volumes of Sabouraud-Liquid medium (Oxoid CM 147) were inoculated from the agar cultures and incubated at 27° C. until heavy uniform growth resulted. The mycelial growth was then broken up by shaking with glass beads.
(§7) 1 Ml aliquots were removed from each of the cultures for the purpose of making viable counts and the cultures were then held at 4° C. The viable counts were made by preparing serial ten-fold dilutions of the cultures in sterile physiological saline and spreading on plates of Sabouraud-Dextrose Agar (Oxoid CM 41) which were then incubated at 27° C. for 14 days. When the viable counts had confirmed that each of the inocula contained approximately 10^6 colony forming units (C.F.U.) per ml the cultures were withdrawn from the refrigerator and used as the inocula for the tests.
(§8) (c) For the tests on each of the remaining seven strains and each of the test and reference compounds, a series of 8 tubes containing 4.5 ml volumes of Sabouraud-Liquid Medium (Oxoid CM 147) were prepared. To 7 of these were added 0.5 ml volumes of the final solutions of the test compounds, giving final concentrations in the broths of 100, 50, 10, 5, 1.0, 0.5 and 0.1 μg/ml. To the eighth tube in each series was added 0.5 ml of the solvent used and diluted as for the preparation of the 500 μg/ml solution of the compound. This tube was used as a growth control. The tubes were then inoculated with 0.1 ml aliquots of the inocula prepared as in "(b) Fungi" above. The tubes were then incubated at 27° C. with continuous shaking for a period of one week. The tubes were then examined for evidence of growth as shown by the presence of mycelial growth in the medium and the lowest concentration of the test compound which prevented fungal growth was recorded as the Minimal Inhibitory Concentration. This test procedure was carried out on two separate days.

Row | SMILES | Minimum Inhibitory Concentration [µg/mL]
19 | CCCCCCCCCCCCCCCC[n+]1c(C)cc(C)n1C.Cc1ccc(S(=O)(=O)[O-])cc1 [Example 6-C, 1-hexadecyl-2,3,5-trimethylpyrazolium p-toluene sulfonate] | 5

same assay, conditions: Aspergillus fumigatus, A. fumigatus, Day 1; 27° C., one week; read-out: Minimum Inhibitory Concentration

Row | SMILES | MIC [µg/mL]
20 | CCCCCCCCCCCCCCn1ccc[n+]1C [Example 3-G, 2-methyl-1-tetradecyl-pyrazolium methosulfate] | 50
21 | CCCCCCCCCCCC[n+]1c(C)cc(C)n1Cc1ccc(Cl)cc1Cl.[Br-] [Example 6-B, 2-(2,4-dichlorobenzyl)-3,5-dimethyl-1-dodecyl-pyrazolium bromide] | 5

same assay, conditions: Aspergillus fumigatus, A. fumigatus, Day 2; 27° C., one week; read-out: Minimum Inhibitory Concentration

Row | SMILES | MIC [µg/mL]
22 | CCCCCCCCCCCCCCn1ccc[n+]1C [Example 3-G, 2-methyl-1-tetradecyl-pyrazolium methosulfate] | 50
23 | CCCCCCCCCCCC[n+]1c(C)cc(C)n1Cc1ccc(Cl)cc1Cl.[Br-] [Example 6-B, 2-(2,4-dichlorobenzyl)-3,5-dimethyl-1-dodecyl-pyrazolium bromide] | 5

system: S. schenkii; test: as above; type: cell-based, Sporotrichon schenkii NCPF 3182; conditions: S. schenkii, Day 1; 27° C., one week; read-out: Minimum Inhibitory Concentration
Experimental: as §1, §2, §6, §7, §8

Row | SMILES | MIC [µg/mL]
24 | CCCCCCCCCCCCCCn1ccc[n+]1C [Example 3-G, 2-methyl-1-tetradecyl-pyrazolium methosulfate] | 5
25 | CCCCCCCCCCCC[n+]1c(C)cc(C)n1Cc1ccc(Cl)cc1Cl.[Br-] [Example 6-B, 2-(2,4-dichlorobenzyl)-3,5-dimethyl-1-dodecyl-pyrazolium bromide] | 1

same assay, conditions: S. schenkii, Day 2; 27° C., one week

Row | SMILES | Minimum Inhibitory Concentration [µg/mL]
26 | CCCCCCCCCCCCCCCC[n+]1c(C)cc(C)n1C.Cc1ccc(S(=O)(=O)[O-])cc1 [Example 6-C, 1-hexadecyl-2,3,5-trimethylpyrazolium p-toluene sulfonate] | 5

same assay, conditions: S. schenkii, Day 2; 27° C., one week; read-out: Minimum Inhibitory Concentration

Row | SMILES | MIC [µg/mL]
27 | CCCCCCCCCCCCCCn1ccc[n+]1C [Example 3-G, 2-methyl-1-tetradecyl-pyrazolium methosulfate] | 10
28 | CCCCCCCCCCCC[n+]1c(C)cc(C)n1Cc1ccc(Cl)cc1Cl.[Br-] [Example 6-B, 2-(2,4-dichlorobenzyl)-3,5-dimethyl-1-dodecyl-pyrazolium bromide] | 1

same assay, conditions: read-out: Minimum Inhibitory Concentration

Row | SMILES | MIC [µg/mL]
29 | CCCCCCCCCCCCCCCC[n+]1c(C)cc(C)n1C.Cc1ccc(S(=O)(=O)[O-])cc1 [Example 6-C, 1-hexadecyl-2,3,5-trimethylpyrazolium p-toluene sulfonate] | 5

system: T. rubrum; test: as above; type: cell-based, Trichophyton rubrum NCPF 197; conditions: T. rubrum, Day 2; 27° C., one week
Experimental: as §1, §2, §6, §7, §8

Row | SMILES | Minimum Inhibitory Concentration [µg/mL]
30 | CCCCCCCCCCCCCCCC[n+]1c(C)cc(C)n1C.Cc1ccc(S(=O)(=O)[O-])cc1 [Example 6-C, 1-hexadecyl-2,3,5-trimethylpyrazolium p-toluene sulfonate] | 5

same assay, conditions: Trichophyton rubrum, T. rubrum, Day 1; 27° C., one week; read-out: Minimum Inhibitory Concentration

Row | SMILES | MIC [µg/mL]
31 | CCCCCCCCCCCCCCn1ccc[n+]1C [Example 3-G, 2-methyl-1-tetradecyl-pyrazolium methosulfate] | 1
32 | CCCCCCCCCCCC[n+]1c(C)cc(C)n1Cc1ccc(Cl)cc1Cl.[Br-] [Example 6-B, 2-(2,4-dichlorobenzyl)-3,5-dimethyl-1-dodecyl-pyrazolium bromide] | 5

same assay, conditions: Trichophyton rubrum, T. rubrum, Day 2; 27° C., one week; read-out: Minimum Inhibitory Concentration

Row | SMILES | MIC [µg/mL]
33 | CCCCCCCCCCCCCCn1ccc[n+]1C [Example 3-G, 2-methyl-1-tetradecyl-pyrazolium methosulfate] | 5
34 | CCCCCCCCCCCC[n+]1c(C)cc(C)n1Cc1ccc(Cl)cc1Cl.[Br-] [Example 6-B, 2-(2,4-dichlorobenzyl)-3,5-dimethyl-1-dodecyl-pyrazolium bromide] | 1
